Experimental data taken from PubChem BioAssay (NCI).
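Exposure lasted 48 hours, with cells grown in 96-well plates and compounds tested at five concentrations. TGI: total growth inhibition.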 Where a SMILES comes first, the peptide text is derived from it. The star is where a group is joined. Fmoc = O=C(OCC1c2ccccc2-c2ccccc21)*; Boc = CC(C)(C)OC(=O)*

Tests used:
Experiment in all cases: NCI-60 cell line screen, 48 h
[1] = tested on: SK-MEL-5 melanoma
[2] = tested on: HS 578T breast
[3] = tested on: CAKI-1 renal
[4] = tested on: OVCAR-8 ovarian
[5] = tested on: CCRF-CEM leukemia
[6] = tested on: K-562 leukemia
[7] = tested on: UACC-257 melanoma
[8] = tested on: SF-539 CNS
[9] = tested on: SNB-19 CNS
[10] = tested on: NCI-H226 lung
[11] = tested on: SF-295 CNS
[12] = tested on: EKVX NSCLC
[13] = tested on: ACHN renal
[14] = tested on: HOP-62 NSCLC
[15] = tested on: HCT-116 colon
[16] = tested on: MCF7 breast
[17] = tested on: HCC-2998 colon
[18] = tested on: UO-31 renal
[19] = tested on: HCT-15 colon
[20] = tested on: MALME-3M melanoma
[21] = tested on: IGROV1 ovarian
[22] = tested on: OVCAR-4 ovarian
[23] = tested on: U251 CNS
[24] = tested on: LOX IMVI melanoma
[25] = tested on: OVCAR-3 ovarian
[26] = tested on: SK-MEL-28 melanoma
[27] = tested on: OVCAR-5 ovarian
[28] = tested on: MDA-N
[29] = tested on: DU-145 prostate
[30] = tested on: COLO 205 colon
[31] = tested on: SK-MEL-2 melanoma
[32] = tested on: NCI/ADR-RES ovarian
[33] = tested on: TK-10 renal
[34] = tested on: SN12C renal
[35] = tested on: 786-0 renal
[36] = tested on: BT-549 breast
[37] = tested on: NCI-H460 lung
[38] = tested on: SK-OV-3 ovarian
[39] = tested on: RXF 393 renal
[40] = tested on: UACC-62 melanoma
[41] = tested on: HT29 colon
[42] = tested on: PC-3 prostate
[43] = tested on: M14 melanoma
[44] = tested on: NCI-H23 lung
[45] = tested on: MDA-MB-435
[46] = tested on: SF-268 CNS
[47] = tested on: MOLT-4 leukemia
[48] = tested on: SNB-75 CNS
[49] = tested on: HOP-92 NSCLC
[50] = tested on: HL-60(TB) leukemia
[51] = tested on: MDA-MB-231 breast
[52] = tested on: A549 NSCLC
[53] = tested on: RPMI-8226 leukemia
[54] = tested on: SR leukemia
[55] = tested on: SW-620 colon
[56] = tested on: T-47D breast
[57] = tested on: KM12 colon
[58] = tested on: DLD-1 colon
[59] = tested on: SNB-78 CNS
[60] = tested on: LXFL 529 NSCLC
[61] = tested on: DMS 114 small cell lung
[62] = tested on: HOP-18 NSCLC
[63] = tested on: KM20L2 colon
[64] = tested on: M19-MEL melanoma
[65] = tested on: DMS 273 small cell lung
[66] = tested on: NCI-H522 lung
[67] = tested on: XF 498 CNS
[68] = tested on: A498 renal

Structure (SMILES): CC(C)(C)OC(=O)NCCCCC(NC(=O)OCC1c2ccccc2-c2ccccc21)C(=O)N1CCCC1C(=O)NCC(N)=O (stereo not drawn) (Fmoc-Lys(Boc)-Pro-Gly-NH2; configuration not given here)
- TGI [1]: > 100 µM
- TGI [2]: > 100 µM
- TGI [3]: 30.1 µM
- TGI [4]: > 100 µM
- TGI [5]: > 100 µM
- TGI [6]: > 100 µM
- TGI [7]: > 100 µM
- TGI [8]: > 100 µM
- TGI [9]: > 100 µM
- TGI [10]: > 100 µM
- TGI [11]: > 100 µM
- TGI [12]: > 100 µM
- TGI [13]: 34.6 µM
- TGI [14]: > 100 µM
- TGI [15]: > 100 µM
- TGI [16]: > 100 µM
- TGI [17]: > 100 µM
- TGI [18]: 29.1 µM
- TGI [19]: 30.1 µM
- TGI [20]: 34.5 µM
- TGI [21]: > 100 µM
- TGI [22]: 44.6 µM
- TGI [23]: 33.1 µM
- TGI [24]: 40 µM
- TGI [25]: > 100 µM
- TGI [26]: > 100 µM
- TGI [27]: > 100 µM
- TGI [28]: 49.9 µM
- TGI [29]: > 100 µM
- TGI [30]: 99.2 µM
- TGI [31]: > 100 µM
- TGI [32]: > 100 µM
- TGI [33]: > 100 µM
- TGI [34]: 30.2 µM
- TGI [35]: 34.3 µM
- TGI [36]: > 100 µM
- TGI [37]: 37.9 µM
- TGI [38]: 26.5 µM
- TGI [39]: > 100 µM
- TGI [40]: > 100 µM
- TGI [41]: > 100 µM
- TGI [42]: > 100 µM
- TGI [43]: > 100 µM
- TGI [44]: > 100 µM
- TGI [45]: 84.8 µM
- TGI [46]: > 100 µM
- TGI [47]: 77.3 µM
- TGI [48]: > 100 µM
- TGI [49]: 48.2 µM
- TGI [50]: > 100 µM
- TGI [51]: > 100 µM
- TGI [52]: > 100 µM
- TGI [53]: > 100 µM
- TGI [54]: 49.5 µM
- TGI [55]: > 100 µM
- TGI [56]: > 100 µM
- TGI [57]: 38.3 µM

Structure (SMILES): CC(=O)OC(CCC1(C)OC1COc1ccc(CCNC(=O)c2ccccc2)cc1)C(C)(C)OC(C)=O (configuration not stated)
- TGI [1]: 17.4 µM
- TGI [58]: > 100 µM
- TGI [3]: > 100 µM
- TGI [4]: 41.4 µM
- TGI [59]: > 100 µM
- TGI [5]: > 100 µM
- TGI [6]: > 100 µM
- TGI [7]: 25.8 µM
- TGI [8]: > 100 µM
- TGI [10]: > 100 µM
- TGI [60]: 34.6 µM
- TGI [11]: > 100 µM
- TGI [13]: > 100 µM
- TGI [14]: > 100 µM
- TGI [15]: 45.5 µM
- TGI [61]: 15.8 µM
- TGI [62]: > 100 µM
- TGI [18]: > 100 µM
- TGI [19]: > 100 µM
- TGI [20]: 80.1 µM
- TGI [21]: > 100 µM
- TGI [22]: > 100 µM
- TGI [23]: > 100 µM
- TGI [24]: > 100 µM
- TGI [25]: 54.5 µM
- TGI [26]: 91.8 µM
- TGI [27]: > 100 µM
- TGI [30]: 58.4 µM
- TGI [63]: > 100 µM
- TGI [31]: 60.4 µM
- TGI [33]: > 100 µM
- TGI [34]: > 100 µM
- TGI [35]: > 100 µM
- TGI [37]: 36.7 µM
- TGI [38]: > 100 µM
- TGI [39]: 43.8 µM
- TGI [40]: 31.4 µM
- TGI [41]: 44 µM
- TGI [43]: 30.1 µM
- TGI [44]: 97.2 µM
- TGI [64]: 69 µM
- TGI [46]: > 100 µM
- TGI [47]: > 100 µM
- TGI [65]: 24.8 µM
- TGI [48]: > 100 µM
- TGI [49]: > 100 µM
- TGI [50]: > 100 µM
- TGI [52]: > 100 µM
- TGI [66]: > 100 µM
- TGI [53]: > 100 µM
- TGI [54]: > 100 µM
- TGI [55]: > 100 µM
- TGI [57]: 33.7 µM

Structure (SMILES): CC(C)C(C)C(C)(C)P(C)(C)=O (configuration not stated)
- TGI [58]: > 100 µM
- TGI [59]: > 100 µM
- TGI [7]: > 100 µM
- TGI [8]: > 100 µM
- TGI [9]: > 100 µM
- TGI [10]: > 100 µM
- TGI [60]: > 100 µM
- TGI [12]: > 100 µM
- TGI [13]: > 100 µM
- TGI [14]: > 100 µM
- TGI [15]: > 100 µM
- TGI [61]: > 100 µM
- TGI [67]: > 100 µM
- TGI [17]: > 100 µM
- TGI [18]: > 100 µM
- TGI [19]: > 100 µM
- TGI [20]: > 100 µM
- TGI [22]: > 100 µM
- TGI [23]: > 100 µM
- TGI [24]: > 100 µM
- TGI [25]: > 100 µM
- TGI [26]: > 100 µM
- TGI [27]: > 100 µM
- TGI [63]: > 100 µM
- TGI [31]: > 100 µM
- TGI [33]: > 100 µM
- TGI [34]: > 100 µM
- TGI [37]: > 100 µM
- TGI [38]: > 100 µM
- TGI [39]: > 100 µM
- TGI [40]: > 100 µM
- TGI [41]: > 100 µM
- TGI [43]: > 100 µM
- TGI [44]: > 100 µM
- TGI [64]: > 100 µM
- TGI [46]: > 100 µM
- TGI [48]: > 100 µM
- TGI [57]: > 100 µM

Structure (SMILES): O=C(O)/C(=C/C=C/c1ccccc1)c1csc(-c2nc(/C(=C\C=C\c3ccccc3)C(=O)O)cs2)n1
- TGI [1]: 86.3 µM
- TGI [58]: 57.7 µM
- TGI [4]: > 100 µM
- TGI [59]: 79.8 µM
- TGI [5]: 45.6 µM
- TGI [6]: 54.6 µM
- TGI [7]: > 100 µM
- TGI [8]: 51.2 µM
- TGI [9]: 58.1 µM
- TGI [68]: > 100 µM
- TGI [60]: 64.8 µM
- TGI [11]: 87.6 µM
- TGI [12]: > 100 µM
- TGI [13]: 92.5 µM
- TGI [14]: 54.6 µM
- TGI [15]: 40.8 µM
- TGI [61]: 72 µM
- TGI [17]: 59.7 µM
- TGI [18]: 59.6 µM
- TGI [19]: > 100 µM
- TGI [20]: 60 µM
- TGI [21]: > 100 µM
- TGI [23]: > 100 µM
- TGI [24]: > 100 µM
- TGI [25]: 57.5 µM
- TGI [26]: > 100 µM
- TGI [27]: > 100 µM
- TGI [30]: 51.3 µM
- TGI [63]: > 100 µM
- TGI [31]: 43.6 µM
- TGI [33]: > 100 µM
- TGI [34]: > 100 µM
- TGI [35]: 56.1 µM
- TGI [37]: > 100 µM
- TGI [38]: > 100 µM
- TGI [39]: 82.4 µM
- TGI [40]: 98.1 µM
- TGI [41]: > 100 µM
- TGI [43]: 61 µM
- TGI [64]: > 100 µM
- TGI [46]: > 100 µM
- TGI [47]: 16.4 µM
- TGI [48]: 98.7 µM
- TGI [49]: 59.9 µM
- TGI [50]: 39.3 µM
- TGI [52]: > 100 µM
- TGI [53]: 65.3 µM
- TGI [55]: > 100 µM
- TGI [57]: 92.4 µM
